Ring closure, yield after HPLC and IC50 data for eleven compounds are collected here from patent publication US12478617B2, “Lipidated peptide inhibitors of interleukin-23 receptor” (JANSSEN BIOTECH, INC., priority 2021, dated 2025).

The conditions of data set [1]: disulfide bond, 20-membered ring, I2/AcOH, ACN/H2O.
Data set [2] concerns the target IL-23R-expressing DB cells (Homo sapiens, UniProt Q5VWK5). As to the kind of experiment: DB Cells IL23R pSTAT3 Cell Assay. The format is cell-based. Conditions: pSTAT3 (HTRF) in IL-23R-expressing DB cells, 0.5 nM IL-23, 30 minutes; Table 6 'IL-23 Cell Data'. The procedure: IL-23 is believed to play a central role in supporting and maintaining Th17 differentiation in vivo. This process is thought to be mediated primarily through the Signal Transducer and Activator of Transcription 3 (STAT3), with phosphorylation of STAT3 (to yield pSTAT3) leading to upregulation of RORC and pro-inflammatory IL-17. […] DB cells (ATCC #CRL-2289), cultured in RPMI-1640 medium (Thermo Scientific #11875093) supplemented with 10% FBS, were added at 5 X 10E5 cells/well and incubated for 30 minutes at 37° C. in a 5% CO2 humidified incubator. Changes in phospho-STAT3 levels in the cell lysates were detected using the Cisbio HTRF pSTAT3 (Tyr705) Cellular Assay Kit (Cisbio #62AT3PEH), according to manufacturer's Two Plate Assay protocol. Where not shown or it is marked as “0”, data was not yet determined.

Where two headings read alike, the source gives them in different places. Positions of bridges follow the written chain, without caps; N, C: chain ends. Non-standard residues stand in square brackets, D forms with d. Residues, ends and D or L forms follow the SMILES beside them. *: point of attachment. CH3O(CH2CH2O)11CH2CH2CO = COCCOCCOCCOCCOCCOCCOCCOCCOCCOCCOCCOCCC(=O)*; Trp(7-Me) = Cc1cccc2c(C[C@H](N)C(=O)O)c[nH]c12; 2Nal = N[C@@H](Cc1ccc2ccccc2c1)C(=O)O; 3Pal = N[C@@H](Cc1cccnc1)C(=O)O; αMeL = CC(C)C[C@](C)(N)C(=O)O; Pen = CC(C)(S)[C@H](N)C(=O)O; X3 = COCCOCCOCCOCCC(=O)*; Sar = CNCC(=O)O

IL-23R-expressing DB cells, sequence (Q5VWK5 24-629 limits assumed): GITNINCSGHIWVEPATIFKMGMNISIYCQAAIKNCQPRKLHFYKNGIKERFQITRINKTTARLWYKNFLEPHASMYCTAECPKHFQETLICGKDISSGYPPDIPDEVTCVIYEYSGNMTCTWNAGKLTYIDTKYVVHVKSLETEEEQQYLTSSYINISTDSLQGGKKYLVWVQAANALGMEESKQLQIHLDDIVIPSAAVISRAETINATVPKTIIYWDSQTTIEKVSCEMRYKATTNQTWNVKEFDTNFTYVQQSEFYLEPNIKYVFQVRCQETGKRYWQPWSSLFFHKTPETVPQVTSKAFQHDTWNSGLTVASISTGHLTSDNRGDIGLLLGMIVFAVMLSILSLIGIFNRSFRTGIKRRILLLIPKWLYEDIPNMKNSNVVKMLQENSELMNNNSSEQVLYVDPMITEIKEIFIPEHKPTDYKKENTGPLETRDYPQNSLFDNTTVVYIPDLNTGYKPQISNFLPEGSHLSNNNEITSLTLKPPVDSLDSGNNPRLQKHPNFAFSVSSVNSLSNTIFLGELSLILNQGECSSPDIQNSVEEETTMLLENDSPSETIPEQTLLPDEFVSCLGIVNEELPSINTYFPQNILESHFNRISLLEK

`CC(=O)NCCCC[C@@H]1NC(=O)[C@H](Cc2c[nH]c3c(C)cccc23)NC(=O)[C@H]([C@@H](C)O)NC(=O)[C@H](CC(N)=O)NC(=O)[C@@H](NC(=O)[C@@H](CCCCNC(=O)COCCOCCNC(=O)COCCOCCNC(=O)CC[C@H](NC(=O)CCCCCCCCCCCCCCCCC(=O)O)C(=O)O)NC(C)=O)C(C)(C)SSC(C)(C)[C@@H](C(=O)N[C@@H](Cc2ccc(OCCN)cc2)C(=O)N[C@@H](Cc2ccc3ccccc3c2)C(=O)NC2(C(=O)N[C@@H](CCCCNC(C)=O)C(=O)N[C@@H](CC(N)=O)C(=O)N[C@@H](Cc3cccnc3)C(=O)N(C)CC(N)=O)CCOCC2)NC1=O` yielded a ring closure, yield after HPLC in data set [1] (from Ac-dLys(PEG2PEG2gEC18OH)-Pen-Asn-Thr-7MeTrp-Lys(Ac)-Pen-AEF-2Nal-THP-Lys(Ac)-Asn-3Pya-Sar-NH2, […]) of 28%.
`CC(=O)NCCCC[C@@H]1NC(=O)[C@H](Cc2c[nH]c3c(C)cccc23)NC(=O)[C@H]([C@@H](C)O)NC(=O)[C@H](CC(N)=O)NC(=O)[C@@H](NC(=O)[C@@H](CCCCNC(=O)COCCOCCNC(=O)COCCOCCNC(=O)CC[C@H](NC(=O)CCCCCCCCCCCCCCCCC(=O)O)C(=O)O)NC(C)=O)C(C)(C)SSC(C)(C)[C@@H](C(=O)N[C@@H](Cc2ccc(OCCN)cc2)C(=O)N[C@@H](Cc2ccc3ccccc3c2)C(=O)NC2(C(=O)N[C@@H](CCCCNC(C)=O)C(=O)N[C@@H](CC(N)=O)C(=O)N[C@@H](Cc3cccnc3)C(=O)N(CC(N)=O)Cc3ccc(C(N)=O)cc3)CCOCC2)NC1=O` displayed a ring closure, yield after HPLC in data set [1] (from Ac-dLys(PEG2PEG2gEC18OH)-Pen-Asn-Thr-7MeTrp-Lys(Ac)-Pen-AEF-2Nal-THP-Lys(Ac)-Asn-3Pya-N(4AmBenzyl)Gly-NH2, 1.72 mM) of 26.8%.
As to `CC(=O)NCCCC[C@@H]1NC(=O)[C@H](Cc2c[nH]c3c(C)cccc23)NC(=O)[C@H]([C@@H](C)O)NC(=O)[C@H](CC(N)=O)NC(=O)[C@@H](NC(=O)[C@@H](CCCCNC(=O)COCCOCCNC(=O)COCCOCCNC(=O)CC[C@H](NC(=O)CCCCCCCCCOc2cccc(C(=O)O)c2)C(=O)O)NC(C)=O)C(C)(C)SSC(C)(C)[C@@H](C(=O)N[C@@H](Cc2ccc(OCCN)cc2)C(=O)N[C@@H](Cc2ccc3ccccc3c2)C(=O)NC2(C(=O)N[C@@H](CCCCNC(=O)COCCOCCNC(=O)COCCOCCNC(=O)CC[C@H](NC(=O)CCCCCCCCCOc3cccc(C(=O)O)c3)C(=O)O)C(=O)N[C@@H](CC(N)=O)C(=O)N[C@@H](Cc3cccnc3)C(=O)N(C)CC(N)=O)CCOCC2)NC1=O`, in data set [1] (from Ac-dLys(PEG2PEG2gEmXOH)-Pen-Asn-Thr-7MeTrp-Lys(Ac)-Pen-AEF-2Nal-THP-Lys(PEG2PEG2gEmXOH)-Asn-3Pya-Sar-NH2, […]), the ring closure, yield after HPLC turned out to be 13%.
`CC(=O)NCCCC[C@@H]1NC(=O)[C@H](Cc2c[nH]c3c(C)cccc23)NC(=O)[C@H]([C@@H](C)O)NC(=O)[C@H](CC(N)=O)NC(=O)[C@@H](NC(=O)[C@@H](CCCNC(=N)N)NC(=O)COCCOCCNC(=O)COCCOCCNC(=O)CC[C@H](NC(=O)CCCCCCCCCCCCCCCCC(=O)O)C(=O)O)C(C)(C)SSC(C)(C)[C@@H](C(=O)N[C@@H](Cc2ccc(OCCN)cc2)C(=O)N[C@@H](Cc2ccc3ccccc3c2)C(=O)NC2(C(=O)N[C@@H](CCCCNC(C)=O)C(=O)N[C@@H](CC(N)=O)C(=O)N[C@@H](Cc3cccnc3)C(=O)N(C)CC(N)=O)CCOCC2)NC1=O` had a ring closure, yield after HPLC in data set [1] (from HOC18gEPEG2PEG2-dArg-Pen-Asn-Thr-7MeTrp-Lys(Ac)-Pen-AEF-2Nal-THP-Lys(Ac)-Asn-3Pya-Sar-NH2, 0.361 mM) of 22%.
In the case of `CCCCCCCCCCCCCCCC(=O)N[C@@H](CCC(=O)NCCCC[C@H](NC(=O)C1(NC(=O)[C@H](Cc2ccc3ccccc3c2)NC(=O)[C@H](Cc2ccc(OCCN)cc2)NC(=O)[C@H]2NC(=O)[C@H](CCCCNC(C)=O)NC(=O)[C@H](Cc3c[nH]c4c(C)cccc34)NC(=O)[C@H]([C@@H](C)O)NC(=O)[C@H](CC(N)=O)NC(=O)[C@@H](NC(=O)[C@@H](CCCCNC(=O)COCCOCCNC(=O)COCCOCCNC(=O)CC[C@H](NC(=O)CCCCCCCCCCCCCCC(=O)O)C(=O)O)NC(C)=O)C(C)(C)SSC2(C)C)CCOCC1)C(=O)N[C@@H](CC(N)=O)C(=O)N[C@@H](Cc1cccnc1)C(=O)N(C)CC(N)=O)C(=O)O`, in data set [1] (from Ac-dLys(PEG2PEG2gEC16OH)-Pen-Asn-Thr-7MeTrp-Lys(Ac)-Pen-AEF-2Nal-THP-Lys(gEC16)-Asn-3Pya-Sar-NH2, 1.62 mM), the ring closure, yield after HPLC was 13%.
As to `COCCOCCOCCOCCOCCOCCOCCOCCOCCOCCOCCOCCC(=O)N[C@@H]1C(=O)N[C@@H](CC(N)=O)C(=O)N[C@@H]([C@@H](C)O)C(=O)N[C@@H](Cc2c[nH]c3c(C)cccc23)C(=O)N[C@@H](CCCCNC(C)=O)C(=O)N[C@H](C(=O)N[C@@H](Cc2ccccc2)C(=O)N[C@@H](Cc2ccc3ccccc3c2)C(=O)N[C@@](C)(CC(C)C)C(=O)N[C@@H](CC(C)C)C(=O)N[C@@H](CC(N)=O)C(=O)N[C@@H](Cc2cccnc2)C(=O)N(C)CC(N)=O)C(C)(C)SSC1(C)C` [Example 207, [PEG12_OMe]-[Pen]-N-T-[Trp(7-Me)]-[Lys(Ac)]-[Pen]-F-[2Nal]-[aMeLeu]-L-N-[3Pal]-[Sarc]-NH2] ({CH3O(CH2CH2O)11CH2CH2CO}-[Pen]NT[Trp(7-Me)]K(Ac)[Pen]F[2Nal][αMeL]LN[3Pal][Sar]-NH2; disulfide 1-6), the IC50 in data set [2] stood at 0.631 nM.
In turn, `COCCOCCOCCOCCOCCOCCOCCOCCOCCOCCOCCOCCC(=O)N[C@@H]1C(=O)N[C@@H](CC(C)C)C(=O)N[C@@H]([C@@H](C)O)C(=O)N[C@@H](Cc2c[nH]c3c(C)cccc23)C(=O)N[C@@H](CCCCNC(C)=O)C(=O)N[C@H](C(=O)N[C@@H](Cc2ccccc2)C(=O)N[C@@H](Cc2ccc3ccccc3c2)C(=O)N[C@@](C)(CC(C)C)C(=O)N[C@@H](CC(C)C)C(=O)N[C@@H](CC(N)=O)C(=O)N[C@@H](Cc2cccnc2)C(=O)N(C)CC(N)=O)C(C)(C)SSC1(C)C` [Example 209, [PEG12_OMe]-[Pen]-L-T-[Trp(7-Me)]-[Lys(Ac)]-[Pen]-F-[2Nal]-[aMeLeu]-L-N-[3Pal]-[Sarc]-NH2] ({CH3O(CH2CH2O)11CH2CH2CO}-[Pen]LT[Trp(7-Me)]K(Ac)[Pen]F[2Nal][αMeL]LN[3Pal][Sar]-NH2; disulfide 1-6) showed an IC50 in data set [2] of 0.07 nM.
Still for that read-out and setting: the value for `COCCOCCOCCOCCC(=O)N[C@@H]1C(=O)N[C@@H](CC(N)=O)C(=O)N[C@@H]([C@@H](C)O)C(=O)N[C@@H](Cc2c[nH]c3c(C)cccc23)C(=O)N[C@@H](CCCCNC(C)=O)C(=O)N[C@H](C(=O)N[C@@H](Cc2ccccc2)C(=O)N[C@@H](Cc2ccc3ccccc3c2)C(=O)N[C@@](C)(CC(C)C)C(=O)N[C@@H](CC(C)C)C(=O)N[C@@H](CC(N)=O)C(=O)N[C@@H](Cc2cccnc2)C(=O)N(C)CC(N)=O)C(C)(C)SSC1(C)C` [Example 211, [PEG4_OMe]-[Pen]-N-T-[Trp(7-Me)]-[Lys(Ac)]-[Pen]-F-[2Nal]-[aMeLeu]-L-N-[3Pal]-[Sarc]-NH2] (X3-[Pen]NT[Trp(7-Me)]K(Ac)[Pen]F[2Nal][αMeL]LN[3Pal][Sar]-NH2; disulfide 1-6) was 0.062 nM; that for `COCCOCCOCCOCCC(=O)N[C@@H]1C(=O)N[C@@H](CC(C)C)C(=O)N[C@@H]([C@@H](C)O)C(=O)N[C@@H](Cc2c[nH]c3c(C)cccc23)C(=O)N[C@@H](CCCCNC(C)=O)C(=O)N[C@H](C(=O)N[C@@H](Cc2ccccc2)C(=O)N[C@@H](Cc2ccc3ccccc3c2)C(=O)N[C@@](C)(CC(C)C)C(=O)N[C@@H](CC(C)C)C(=O)N[C@@H](CC(N)=O)C(=O)N[C@@H](Cc2cccnc2)C(=O)N(C)CC(N)=O)C(C)(C)SSC1(C)C` [Example 213, [PEG4_OMe]-[Pen]-L-T-[Trp(7-Me)]-[Lys(Ac)]-[Pen]-F-[2Nal]-[aMeLeu]-L-N-[3Pal]-[Sarc]-NH2] (X3-[Pen]LT[Trp(7-Me)]K(Ac)[Pen]F[2Nal][αMeL]LN[3Pal][Sar]-NH2; disulfide 1-6) was 0.13 nM.
In data set [2], `CCCCCCCCCCCCCCCC(=O)N[C@@H](CCC(=O)NCCOCCOCCOCCOCCOCCOCCOCCOCCOCCOCCOCCOCCC(=O)NCCCC[C@](C)(NC(=O)[C@H](Cc1ccc2ccccc2c1)NC(=O)[C@H](Cc1ccc(OC)cc1)NC(=O)[C@H]1NC(=O)[C@H](CCCCNC(C)=O)NC(=O)[C@H](Cc2c[nH]c3c(C)cccc23)NC(=O)[C@H]([C@@H](C)O)NC(=O)[C@H](CC(N)=O)NC(=O)[C@@H](NC(C)=O)C(C)(C)SSC1(C)C)C(=O)N[C@@H](C)C(=O)N[C@@H](C)C(=O)N[C@@H](Cc1cccnc1)C(=O)N(C)CC(N)=O)C(=O)O` [Example 225, Ac-[Pen]-N-T-[Trp(7-Me)]-[Lys(Ac)]-[Pen]-[Phe(4-OMe)]-[2Nal]-[aMeLys(PEG12_IsoGlu_Palm)]-A-A-[3Pal]-[Sarc]-NH2] had an IC50 of 0.811 nM.
The compound “MeCO-k(PEG2PEG2gE(c)C180H)-Pen*-N-T-7MeW-K(Ac)-Pen*-AEF-2Nal-THP—K(Ac)-N-3Pya-Sar-CONH2” registered a ring closure, yield after HPLC in data set [1] (ascorbic acid quench, 0.34 mM) of 20%.
